SMILES strings stand for the structures.

Assay [1] deals with T1, full-length beta-Catenin (Uniprot ID P35222) (Homo sapiens, UniProt P35222).
T1 construct: 10 nM full-length beta-Catenin (Uniprot ID P35222)
T1 sequence (P35222 1-781): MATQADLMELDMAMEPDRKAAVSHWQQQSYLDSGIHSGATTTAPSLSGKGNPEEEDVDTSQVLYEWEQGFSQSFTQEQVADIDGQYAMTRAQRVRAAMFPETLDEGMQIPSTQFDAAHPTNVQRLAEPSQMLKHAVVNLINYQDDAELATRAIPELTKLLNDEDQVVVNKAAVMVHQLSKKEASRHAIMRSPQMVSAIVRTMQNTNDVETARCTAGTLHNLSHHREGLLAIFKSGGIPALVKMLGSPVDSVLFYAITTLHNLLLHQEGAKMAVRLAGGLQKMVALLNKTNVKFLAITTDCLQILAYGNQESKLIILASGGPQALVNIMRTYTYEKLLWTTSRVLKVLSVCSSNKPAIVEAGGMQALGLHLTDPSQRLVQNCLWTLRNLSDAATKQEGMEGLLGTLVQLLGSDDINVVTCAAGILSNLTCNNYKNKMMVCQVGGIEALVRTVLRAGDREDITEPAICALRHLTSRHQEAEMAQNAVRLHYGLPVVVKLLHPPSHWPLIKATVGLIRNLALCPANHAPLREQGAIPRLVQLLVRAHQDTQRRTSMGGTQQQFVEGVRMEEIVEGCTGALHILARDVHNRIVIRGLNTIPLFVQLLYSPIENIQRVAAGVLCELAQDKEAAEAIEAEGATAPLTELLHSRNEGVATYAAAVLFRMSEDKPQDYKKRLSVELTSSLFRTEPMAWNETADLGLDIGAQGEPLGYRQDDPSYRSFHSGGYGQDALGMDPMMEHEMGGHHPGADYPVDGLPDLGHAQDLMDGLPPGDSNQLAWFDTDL
Briefly: Fluorescence polarization IC50 (beta-catenin / 5FAM-TCF4 10-53 competition). In kind it is binding. The settings on record: fluorescence polarization; read-out: beta-Catenin FP IC50. (Polarisation of emitted light reports the rotation of a fluorescent probe.)

The target of assay [2] is T2, beta-catenin/TCF4 engagement (Homo sapiens, UniProt P35222).
T2 construct: expressed in transfected cells; host or cells: HEK293
T2 sequence (P35222 1-781): T1 sequence (P35222 1-781)
Description: Nano-BRET target engagement assay (B-cat-Halo & TCF4-Luc in HEK293 cells). The format is cell-based. The settings on record: read-out: NanoBRET Abs IC50. (BRET reads energy transfer from a luciferase to a nearby fluorophore.)

Turning to `CC(=O)N1CCC[C@]12CC=CCCCC1(CCCC=CCCCOC(=O)N3CC[C@@](C(=O)N[C@@H](Cc4ccsc4)C(=O)N[C@@H](Cc4csc5ccccc45)C(=O)N[C@H](C)C(N)=O)(C3)NC(=O)[C@H](CC(C)C)NC(=O)[C@H](Cc3ccccc3)NC(=O)[C@H](C)NC(=O)[C@H](C)NC(=O)[C@H](Cc3cccc(C(=O)O)c3)NC(=O)[C@H](CC(=O)O)NC1=O)NC(=O)[C@H](CC(C)(C)C)NC(=O)[C@H](CC(=O)O)NC2=O` (stereo partly drawn) [I-2090, Ac-PL3-Asp-Npg-B5-Asp-3COOHF-Ala-Ala-Phe-Leu-PyrS2-3Thi-BztA-dAla-NH2], the IC50 (as a rule, the midpoint of a concentration-inhibition curve) in assay [1] stood at 11 nM; in assay [2], 5900 nM.
In the case of `CC(=O)N1CCC[C@]12CC=CCCCC1(CCCC=CCCCOC(=O)N3CC[C@@](C(=O)N[C@@H](Cc4ccccc4C(F)(F)F)C(=O)N[C@@H](Cc4csc5ccccc45)C(=O)N[C@H](C)C(N)=O)(C3)NC(=O)[C@H](CC(C)C)NC(=O)[C@H](Cc3ccccc3)NC(=O)[C@H](C)NC(=O)[C@H](C)NC(=O)[C@H](Cc3cccc(C(=O)O)c3)NC(=O)[C@H](CC(=O)O)NC1=O)NC(=O)[C@H](CC(C)(C)C)NC(=O)[C@H](CC(=O)O)NC2=O` (stereo partly drawn) [I-2091, Ac-PL3-Asp-Npg-B5-Asp-3COOHF-Ala-Ala-Phe-Leu-PyrS2-2F3MeF-BztA-dAla-NH2], the IC50 in assay [1] turned out to be 49 nM; in assay [2] it was 6200 nM.
The corresponding values for `CC(=O)N1CCC[C@]12CC=CCCCC1(CCCC=CCCCOC(=O)N3CC[C@@](C(=O)N[C@@H](Cc4ccsc4)C(=O)N[C@@H](Cc4csc5ccccc45)C(=O)N[C@H](CCC(N)=O)C(N)=O)(C3)NC(=O)[C@H](Cc3ccccc3)NC(=O)[C@H](Cc3ccccc3)NC(=O)[C@H](C)NC(=O)[C@H](C)NC(=O)[C@H](Cc3cccc(C(=O)O)c3)NC(=O)[C@H](CC(=O)O)NC1=O)NC(=O)[C@H](CC(C)(C)C)NC(=O)[C@H](CC(=O)O)NC2=O` (stereo partly drawn) [I-2092, Ac-PL3-Asp-Npg-B5-Asp-3COOHF-Ala-Ala-Phe-Phe-PyrS2-3Thi-BztA-dGln-NH2] are 15 nM and 4400 nM.
In the same order, the values of `CC(=O)N1CCC[C@]12CC=CCCCC1(CCCC=CCCCOC(=O)N3CC[C@@](C(=O)N[C@@H](Cc4ccccc4C(F)(F)F)C(=O)N[C@@H](Cc4csc5ccccc45)C(=O)N[C@H](CCC(N)=O)C(N)=O)(C3)NC(=O)[C@H](Cc3ccccc3)NC(=O)[C@H](Cc3ccccc3)NC(=O)[C@H](C)NC(=O)[C@H](C)NC(=O)[C@H](Cc3cccc(C(=O)O)c3)NC(=O)[C@H](CC(=O)O)NC1=O)NC(=O)[C@H](CC(C)(C)C)NC(=O)[C@H](CC(=O)O)NC2=O` (stereo partly drawn) [I-2093, Ac-PL3-Asp-Npg-B5-Asp-3COOHF-Ala-Ala-Phe-Phe-PyrS2-2F3MeF-BztA-dGln-NH2] are 43 nM and 5000 nM.
For `CC(=O)N1CCC[C@]12CC=CCCCC1(CCCC=CCCCOC(=O)N3CC[C@@](C(=O)N[C@@H](Cc4ccsc4)C(=O)N[C@@H](Cc4csc5ccccc45)C(=O)N[C@H](C)C(N)=O)(C3)NC(=O)[C@H](Cc3ccccc3)NC(=O)[C@H](Cc3ccccc3)NC(=O)[C@H](C)NC(=O)[C@H](C)NC(=O)[C@H](Cc3cccc(C(=O)O)c3)NC(=O)[C@H](CC(=O)O)NC1=O)NC(=O)[C@H](CC(C)(C)C)NC(=O)[C@H](CC(=O)O)NC2=O` (stereo partly drawn) [I-2094, Ac-PL3-Asp-Npg-B5-Asp-3COOHF-Ala-Ala-Phe-Phe-PyrS2-3Thi-BztA-dAla-NH2], the IC50 came out at 28 nM in assay [1] and 9700 nM in assay [2].
In the case of `CC(=O)N1CCC[C@]12CC=CCCCC1(CCCC=CCCCOC(=O)N3CC[C@@](C(=O)N[C@@H](Cc4ccccc4C(F)(F)F)C(=O)N[C@@H](Cc4csc5ccccc45)C(=O)N[C@H](C)C(N)=O)(C3)NC(=O)[C@H](Cc3ccccc3)NC(=O)[C@H](Cc3ccccc3)NC(=O)[C@H](C)NC(=O)[C@H](C)NC(=O)[C@H](Cc3cccc(C(=O)O)c3)NC(=O)[C@H](CC(=O)O)NC1=O)NC(=O)[C@H](CC(C)(C)C)NC(=O)[C@H](CC(=O)O)NC2=O` (stereo partly drawn) [I-2095, Ac-PL3-Asp-Npg-B5-Asp-3COOHF-Ala-Ala-Phe-Phe-PyrS2-2F3MeF-BztA-dAla-NH2], the IC50 was 78 nM in assay [1] and 10500 nM in assay [2].
With `CC(=O)N1CCC[C@]12CC=CCCCC1(CCCC=CCCCOC(=O)N3CC[C@@](C(=O)N[C@@H](Cc4ccsc4)C(=O)N[C@@H](Cc4csc5ccccc45)C(=O)N[C@@H](C)C(N)=O)(C3)NC(=O)[C@H](CC(C)C)NC(=O)[C@H](Cc3ccccc3)NC(=O)[C@@H](C)NC(=O)[C@H](C)NC(=O)[C@H](Cc3cccc(C(=O)O)c3)NC(=O)[C@H](CC(=O)O)NC1=O)NC(=O)[C@H](CC(C)(C)C)NC(=O)[C@H](CC(=O)O)NC2=O` (stereo partly drawn) [I-2096, Ac-PL3-Asp-Npg-B5-Asp-3COOHF-Ala-dAla-Phe-Leu-PyrS2-3Thi-BztA-Ala-NH2], the values for the half-maximal inhibitory concentration (IC50) in assay [1] and in assay [2] were 79 nM and greater than 20000 nM, respectively.
In the case of `CC(=O)N1CCC[C@]12CC=CCCCC1(CCCC=CCCCOC(=O)N3CC[C@@](C(=O)N[C@@H](Cc4ccsc4)C(=O)N[C@@H](Cc4csc5ccccc45)C(=O)N[C@@H](C)C(N)=O)(C3)NC(=O)[C@H](CC(C)C)NC(=O)[C@H](Cc3ccccc3)NC(=O)[C@@H](C)NC(=O)[C@H](C)NC(=O)[C@H](Cc3cccc(C(=O)O)c3)NC(=O)[C@H](CC(=O)O)NC1=O)NC(=O)[C@H](CC(C)(C)C)NC(=O)[C@H](CC(=O)O)NC2=O` (stereo partly drawn) [I-2097, Ac-PL3-Asp-Npg-B5-Asp-3COOHF-Ala-dAla-Phe-Leu-PyrS2-3Thi-BztA-Ala-NH2], the IC50 in assay [1] was 23 nM; in assay [2] it was 22300 nM.
Turning to `CC(=O)N1CCC[C@]12CC=CCCCC1(CCCC=CCCCOC(=O)N3CC[C@@](C(=O)N[C@@H](Cc4ccccc4C(F)(F)F)C(=O)N[C@@H](Cc4csc5ccccc45)C(=O)N[C@@H](C)C(N)=O)(C3)NC(=O)[C@H](CC(C)C)NC(=O)[C@H](Cc3ccccc3)NC(=O)[C@@H](C)NC(=O)[C@H](C)NC(=O)[C@H](Cc3cccc(C(=O)O)c3)NC(=O)[C@H](CC(=O)O)NC1=O)NC(=O)[C@H](CC(C)(C)C)NC(=O)[C@H](CC(=O)O)NC2=O` (stereo partly drawn) [I-2098, Ac-PL3-Asp-Npg-B5-Asp-3COOHF-Ala-dAla-Phe-Leu-PyrS2-2F3MeF-BztA-Ala-NH2], the IC50 in assay [1] is 260 nM; in assay [2], greater than 20000 nM.
On to `CC(=O)N1CCC[C@]12CC=CCCCC1(CCCC=CCCCOC(=O)N3CC[C@@](C(=O)N[C@@H](Cc4ccsc4)C(=O)N[C@@H](Cc4csc5ccccc45)C(=O)N[C@H](C)C(N)=O)(C3)NC(=O)[C@H](CC(C)C)NC(=O)[C@H](Cc3ccccc3)NC(=O)[C@@H](C)NC(=O)[C@H](C)NC(=O)[C@H](Cc3cccc(C(=O)O)c3)NC(=O)[C@H](CC(=O)O)NC1=O)NC(=O)[C@H](CC(C)(C)C)NC(=O)[C@H](CC(=O)O)NC2=O` (stereo partly drawn) [I-2100, Ac-PL3-Asp-Npg-B5-Asp-3COOHF-Ala-dAla-Phe-Leu-PyrS2-3Thi-BztA-dAla-NH2], for which the IC50 in assay [1] was 86 nM; in assay [2] it was greater than 20000 nM.
As to `CC(=O)N1CCC[C@]12CC=CCCCC1(CCCC=CCCCOC(=O)N3CC[C@@](C(=O)N[C@@H](Cc4ccccc4)C(=O)N[C@@H](Cc4csc5ccccc45)C(=O)N[C@@H](CCO)C(N)=O)(C3)NC(=O)[C@H](CCCCNC(C)C)NC(=O)[C@H](Cc3ccccc3)NC(=O)[C@H](C)NC(=O)[C@H](CCCCNC(C)C)NC(=O)[C@H](CCC(N)=O)NC(=O)[C@H](CC(=O)O)NC1=O)NC(=O)[C@H](CC1CCCCC1)NC(=O)[C@H](CC(N)=O)NC2=O` (stereo partly drawn) [I-2102, Ac-PL3-Asn-Cha-B5-Asp-Gln-iPrLys-Ala-Phe-iPrLys-PyrS2-Phe-BztA-Hse-NH2], the IC50 was 273 nM in assay [1] and greater than 20000 nM in assay [2].
As to `CC(=O)N1CCC[C@]12CC=CCCCC1(CCCC=CCCCOC(=O)N3CC[C@@](C(=O)N[C@@H](Cc4ccccc4)C(=O)N[C@@H](Cc4csc5ccccc45)C(=O)N[C@@H](Cc4c[nH]cn4)C(N)=O)(C3)NC(=O)[C@H](CC(N)=O)NC(=O)[C@H](Cc3ccccc3)NC(=O)[C@H](C)NC(=O)[C@H](CCCCNC(C)C)NC(=O)[C@H](CCC(N)=O)NC(=O)[C@H](CC(=O)O)NC1=O)NC(=O)[C@H](CC1CCCCC1)NC(=O)[C@H](CC(N)=O)NC2=O` (stereo partly drawn) [I-2109, Ac-PL3-Asn-Cha-B5-Asp-Gln-iPrLys-Ala-Phe-Asn-PyrS2-Phe-BztA-His-NH2], the IC50 in assay [1] was 136 nM; in assay [2], greater than 20000 nM.
In the case of `CC(=O)N1CCC[C@]12CC=CCCCC1(CCCC=CCCCOC(=O)N3CC[C@@](C(=O)N[C@@H](Cc4ccccc4)C(=O)N[C@@H](Cc4csc5ccccc45)C(=O)N[C@@H](CCCCN)C(N)=O)(C3)NC(=O)[C@H](CC(N)=O)NC(=O)[C@H](Cc3ccccc3)NC(=O)[C@H](C)NC(=O)[C@H](CCCCNC(C)C)NC(=O)[C@H](CCC(N)=O)NC(=O)[C@H](CC(=O)O)NC1=O)NC(=O)[C@H](CC1CCCCC1)NC(=O)[C@H](CC(N)=O)NC2=O` (stereo partly drawn) [I-2110, Ac-PL3-Asn-Cha-B5-Asp-Gln-iPrLys-Ala-Phe-Asn-PyrS2-Phe-BztA-Lys-NH2], the results for the IC50 in assay [1] and in assay [2] were 88 nM and greater than 20000 nM, respectively.

Source of the values: patent US20240116985A1, “STAPLED PEPTIDES AND METHODS THEREOF” (priority 2020, published 2024).
